Reference: ChEMBL document CHEMBL2401659, “Synthesis, anticancer activity and photophysical properties of novel substituted 2-oxo-2H-chromenylpyrazolecarboxylates” (Eur J Med Chem, 2013)

Legend:
Format in all cases: functional, cell-based
[1] = system: HeLa; test: Cytotoxicity against human HeLa cells after 48 hrs by MTT assay
[2] = system: A549; test: Cytotoxicity against human A549 cells after 48 hrs by MTT assay; conditions: A549, 48 h
[3] = system: DU-145; test: Cytotoxicity against human DU145 cells after 48 hrs by MTT assay; conditions: DU-145, 48 h

COc1ccc(-n2nc(C)c3c(=O)oc4ccccc4c32)cc1
IC50 [1]: 190 µM
IC50 [2]: 27 µM
IC50 [3]: 175 µM

Cc1nn(-c2ccc(Cl)cc2)c2c1c(=O)oc1ccccc12
IC50 [1]: 83 µM
IC50 [2]: 136 µM
IC50 [3]: 121 µM

COC(=O)c1c(-c2cc3ccccc3oc2=O)nn(-c2cccc(Cl)c2)c1C(=O)OC
IC50 [1]: 76 µM
IC50 [2]: 30 µM
IC50 [3]: 32 µM

Cc1nn(-c2cccc(F)c2)c2c1c(=O)oc1ccccc12
IC50 [1]: 276 µM
IC50 [2]: 125 µM
IC50 [3]: 134 µM

Cc1nn(-c2ccc(Br)cc2)c2c1c(=O)oc1ccccc12
IC50 [1]: 130 µM
IC50 [2]: 130 µM
IC50 [3]: 53 µM

COc1ccc2oc(=O)c3c(C)nn(-c4ccccc4)c3c2c1
IC50 [1]: 115 µM
IC50 [2]: 150 µM
IC50 [3]: 150 µM

O=c1oc2ccccc2c2c1cnn2-c1ccccc1
IC50 [1]: 165 µM
IC50 [2]: 175 µM
IC50 [3]: 125 µM

Cc1cccc(-n2ncc3c(=O)oc4ccccc4c32)c1
IC50 [1]: 135 µM
IC50 [2]: 160 µM
IC50 [3]: 100 µM

O=c1oc2ccccc2c2c1cnn2-c1cccc(Cl)c1
IC50 [1]: 110 µM
IC50 [2]: 110 µM
IC50 [3]: 60 µM

Cc1ccc2oc(=O)c3cnn(-c4ccccc4)c3c2c1
IC50 [1]: 192 µM
IC50 [2]: 125 µM
IC50 [3]: 110 µM

Cc1cccc(-n2ncc3c(=O)oc4ccc(C)cc4c32)c1
IC50 [1]: 150 µM
IC50 [2]: 145 µM
IC50 [3]: 130 µM

Cc1ccc2oc(=O)c3cnn(-c4cccc(Cl)c4)c3c2c1
IC50 [1]: 120 µM
IC50 [2]: 150 µM
IC50 [3]: 105 µM

CCOC(=O)c1c(-c2cc3ccccc3oc2=O)nn(-c2ccc(C)c(C)c2)c1C(=O)OCC
IC50 [1]: 50 µM
IC50 [2]: 52 µM
IC50 [3]: 40 µM

CCOC(=O)c1c(-c2cc3ccccc3oc2=O)nn(-c2ccc(OC)cc2)c1C(=O)OCC
IC50 [1]: 90 µM
IC50 [2]: 86 µM
IC50 [3]: 39 µM

CCOC(=O)c1c(-c2cc3ccccc3oc2=O)nn(-c2cccc(Cl)c2)c1C(=O)OCC
IC50 [1]: 22 µM
IC50 [2]: 28 µM
IC50 [3]: 35 µM

CCOC(=O)c1c(-c2cc3ccccc3oc2=O)nn(-c2cccc(F)c2)c1C(=O)OCC
IC50 [1]: 68 µM
IC50 [2]: 59 µM
IC50 [3]: 32 µM

COC(=O)c1c(-c2cc3ccccc3oc2=O)nn(-c2cccc(F)c2)c1C(=O)OC
IC50 [1]: 76 µM
IC50 [2]: 50 µM
IC50 [3]: 37 µM

CCOC(=O)c1c(-c2cc3ccccc3oc2=O)nn(-c2ccc(Cl)cc2)c1C(=O)OCC
IC50 [1]: 87 µM
IC50 [2]: 35 µM
IC50 [3]: 26 µM

CCOC(=O)c1c(-c2cc3ccccc3oc2=O)nn(-c2ccc(Br)cc2)c1C(=O)OCC
IC50 [1]: 250 µM
IC50 [2]: 100 µM
IC50 [3]: 61 µM

COC(=O)c1c(-c2cc3ccccc3oc2=O)nn(-c2ccc(Br)cc2)c1C(=O)OC
IC50 [1]: 120 µM
IC50 [2]: 165 µM
IC50 [3]: 93 µM

CCOC(=O)c1c(-c2cc3cc(OC)ccc3oc2=O)nn(-c2ccccc2)c1C(=O)OCC
IC50 [1]: 145 µM
IC50 [2]: 35 µM
IC50 [3]: 27 µM

CCOC(=O)c1c(-c2cc3cc(OC)ccc3oc2=O)nn(-c2cccc(C)c2)c1C(=O)OCC
IC50 [1]: 155 µM
IC50 [2]: 102 µM
IC50 [3]: 31 µM

CCOC(=O)c1c(-c2cc3cc(OC)ccc3oc2=O)nn(-c2cccc(Cl)c2)c1C(=O)OCC
IC50 [1]: 160 µM
IC50 [2]: 148 µM
IC50 [3]: 29 µM

CCOC(=O)c1c(-c2cc3ccc(OC)cc3oc2=O)nn(-c2ccccc2)c1C(=O)OCC
IC50 [1]: 140 µM
IC50 [2]: 132 µM
IC50 [3]: 33 µM

CCOC(=O)c1c(-c2cc3ccc(OC)cc3oc2=O)nn(-c2cccc(C)c2)c1C(=O)OCC
IC50 [1]: 35 µM
IC50 [2]: 171 µM
IC50 [3]: 35 µM

CCOC(=O)c1c(-c2cc3ccc(OC)cc3oc2=O)nn(-c2cccc(Cl)c2)c1C(=O)OCC
IC50 [1]: 205 µM
IC50 [2]: 221 µM
IC50 [3]: 38 µM

CCOC(=O)c1c(-c2cc3ccc(OCC=C(C)C)cc3oc2=O)nn(-c2ccccc2)c1C(=O)OCC
IC50 [1]: 130 µM
IC50 [2]: 136 µM
IC50 [3]: 75 µM

CCOC(=O)c1c(-c2cc3ccc(OCC=C(C)C)cc3oc2=O)nn(-c2cccc(C)c2)c1C(=O)OCC
IC50 [1]: 150 µM
IC50 [2]: 178 µM
IC50 [3]: 125 µM

CCOC(=O)c1c(-c2cc3ccc(OCC=C(C)C)cc3oc2=O)nn(-c2cccc(Cl)c2)c1C(=O)OCC
IC50 [1]: 110 µM
IC50 [2]: 163 µM
IC50 [3]: 139 µM

CCOC(=O)c1c(-c2cc3c(ccc4ccccc43)oc2=O)nn(-c2ccccc2)c1C(=O)OCC
IC50 [1]: 120 µM
IC50 [2]: 136 µM
IC50 [3]: 80 µM

CCOC(=O)c1c(-c2cc3c(ccc4ccccc43)oc2=O)nn(-c2cccc(C)c2)c1C(=O)OCC
IC50 [1]: 155 µM
IC50 [2]: 179 µM
IC50 [3]: 259 µM

CCOC(=O)c1c(-c2cc3c(ccc4ccccc43)oc2=O)nn(-c2cccc(Cl)c2)c1C(=O)OCC
IC50 [1]: 170 µM
IC50 [2]: 165 µM
IC50 [3]: 257 µM

CCOC(=O)c1c(-c2cc3cc4c(cc3oc2=O)OC(C)(C)CC4)nn(-c2ccccc2)c1C(=O)OCC
IC50 [1]: 125 µM
IC50 [2]: 189 µM
IC50 [3]: 209 µM

CCOC(=O)c1c(-c2cc3cc4c(cc3oc2=O)OC(C)(C)CC4)nn(-c2cccc(C)c2)c1C(=O)OCC
IC50 [1]: 105 µM
IC50 [2]: 175 µM
IC50 [3]: 67 µM

CCOC(=O)c1c(-c2cc3cc4c(cc3oc2=O)OC(C)(C)CC4)nn(-c2cccc(Cl)c2)c1C(=O)OCC
IC50 [1]: 145 µM
IC50 [2]: 146 µM
IC50 [3]: 74 µM

CCOC(=O)c1c(-c2c(Cl)c3ccccc3oc2=O)nn(-c2ccccc2)c1C(=O)OCC
IC50 [1]: 100 µM
IC50 [2]: 34 µM
IC50 [3]: 48 µM

CCOC(=O)c1c(-c2c(Cl)c3ccccc3oc2=O)nn(-c2cccc(C)c2)c1C(=O)OCC
IC50 [1]: 30 µM
IC50 [2]: 36 µM
IC50 [3]: 32 µM

CCOC(=O)c1c(-c2c(Cl)c3ccccc3oc2=O)nn(-c2ccc(OC)cc2)c1C(=O)OCC
IC50 [1]: 27 µM
IC50 [2]: 18 µM
IC50 [3]: 25 µM

CCOC(=O)c1c(-c2c(Cl)c3ccccc3oc2=O)nn(-c2cccc(Cl)c2)c1C(=O)OCC
IC50 [1]: 40 µM
IC50 [2]: 38 µM
IC50 [3]: 24 µM

CCOC(=O)c1c(-c2c(Cl)c3ccccc3oc2=O)nn(-c2ccc(Br)cc2)c1C(=O)OCC
IC50 [1]: 500 µM
IC50 [2]: 30 µM
IC50 [3]: 32 µM

CCOC(=O)c1c(-c2c(Cl)c3cc(C)ccc3oc2=O)nn(-c2ccccc2)c1C(=O)OCC
IC50 [1]: 228 µM
IC50 [2]: 108 µM
IC50 [3]: 50 µM

CCOC(=O)c1c(-c2c(Cl)c3cc(C)ccc3oc2=O)nn(-c2cccc(C)c2)c1C(=O)OCC
IC50 [1]: 115 µM
IC50 [2]: 115 µM
IC50 [3]: 103 µM

CCOC(=O)c1c(-c2c(Cl)c3cc(C)ccc3oc2=O)nn(-c2cccc(Cl)c2)c1C(=O)OCC
IC50 [1]: 125 µM
IC50 [2]: 128 µM
IC50 [3]: 156 µM

CCOC(=O)c1c(-c2cc3ccccc3oc2=O)nn(-c2ccccc2)c1C(=O)OCC
IC50 [1]: 100 µM
IC50 [2]: 100 µM
IC50 [3]: 57 µM

COC(=O)c1c(-c2cc3ccccc3oc2=O)nn(-c2ccccc2)c1C(=O)OC
IC50 [1]: 35 µM
IC50 [2]: 28 µM
IC50 [3]: 30 µM

CCOC(=O)c1c(-c2cc3ccccc3oc2=O)nn(-c2cccc(C)c2)c1C(=O)OCC
IC50 [1]: 245 µM
IC50 [2]: 52 µM
IC50 [3]: 47 µM

COC(=O)c1c(-c2cc3ccccc3oc2=O)nn(-c2cccc(C)c2)c1C(=O)OC
IC50 [1]: 45 µM
IC50 [2]: 51 µM
IC50 [3]: 35 µM

Cc1nn(-c2cccc(Cl)c2)c2c1c(=O)oc1ccccc12
IC50 [1]: 175 µM
IC50 [2]: 85 µM
IC50 [3]: 139 µM

Cc1nn(-c2ccccc2)c2c1c(=O)oc1ccccc12
IC50 [1]: 120 µM
IC50 [2]: 119 µM
IC50 [3]: 120 µM

Cc1cccc(-n2nc(C)c3c(=O)oc4ccccc4c32)c1
IC50 [1]: 154 µM
IC50 [2]: 43 µM
IC50 [3]: 150 µM

COc1cccc2c1C(=O)c1c(O)c3c(c(O)c1C2=O)C[C@@](O)(C(=O)CO)C[C@@H]3O[C@H]1C[C@H](N)[C@H](O)[C@H](C)O1 [DOXORUBICIN]
IC50 [1]: 4.1 µM
IC50 [2]: 4 µM
IC50 [3]: 6 µM

COC(=O)Nc1nc2cc(C(=O)c3cccs3)ccc2[nH]1 [NOCODAZOLE]
IC50 [1]: 0.71 µM
IC50 [2]: 2.31 µM
IC50 [3]: 2.8 µM
